The values that follow come from patent publication US10793580B2, “Substituted pyrazoloazepin-8-ones and their use as phosphodiesterase inhibitors” (LEO Pharma A/S, priority 2016, dated 2020).

Chain of human PDE4D catalytic domain (Q08499 380-740): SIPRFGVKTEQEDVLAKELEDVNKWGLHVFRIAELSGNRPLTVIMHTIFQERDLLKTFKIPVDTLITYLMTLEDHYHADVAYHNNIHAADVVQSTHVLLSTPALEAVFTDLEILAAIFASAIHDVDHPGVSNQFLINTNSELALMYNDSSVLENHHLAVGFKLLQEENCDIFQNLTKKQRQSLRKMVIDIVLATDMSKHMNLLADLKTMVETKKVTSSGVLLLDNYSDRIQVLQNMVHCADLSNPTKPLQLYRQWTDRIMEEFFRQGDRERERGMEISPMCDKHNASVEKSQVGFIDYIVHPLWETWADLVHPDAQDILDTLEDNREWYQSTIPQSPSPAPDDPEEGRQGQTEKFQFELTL

The target of the assay is human PDE4D catalytic domain (Homo sapiens (Human), UniProt Q08499). Briefly: PDE4 Assay (TR-FRET, FAM-cAMP cleavage). In kind it is biochemical. The following applies: Table 17, Examples 297-316; read-out: PDE4 IC50 range. In a few lines:
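PDE4D catalytic domain (S380-L740) incubated briefly with unlabelled cAMP plus FAM-cAMP and titrated compound. Reaction stopped with binding buffer holding metal-ion nanoparticles that bind AMP phospho groups and Tb donor, and AMP formation read by TR-FRET. IC50 versus controls, reported as ranges (nM).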
For orientation: In TR-FRET formats the signal depends on donor and acceptor labels being close together.
As a reminder, the IC50 is the concentration needed to halve the response being measured. Regarding `CCn1nc(CC(C)(C)COC(=O)C2CCN(C(C)=O)CC2)c2c1C(=O)NCC1(CCOCC1)C2` [Example 314, [3-(1-ethyl-8-oxo-spiro[6,7-dihydro-4H-pyrazolo[3,4-c]azepine-5,4′-tetrahydropyran]-3-yl)-2,2-dimethyl-propyl] 1-acetylpiperidine-4-carboxylate], the 50% inhibitory concentration (IC50) is below 100 nM.
With `CCn1nc(CC(C)(C)COC(=O)C2CCN(C(=O)OC)CC2)c2c1C(=O)NCC1(CCOCC1)C2` [Example 315, [3-(1-ethyl-8-oxo-spiro[6,7-dihydro-4H-pyrazolo[3,4-c]azepine-5,4′-tetrahydro-pyran]-3-yl)-2,2-dimethyl-propyl] 1-methoxycarbonyl-peridine-4-carboxylate], the half-inhibitory concentration (IC50) was below 100 nM.
The figure for `CCn1nc(CC(C)(C)COC(=O)C2CCN(C(=O)N(C)C)CC2)c2c1C(=O)NCC1(CCOCC1)C2` [Example 316, [3-(1-ethyl-8-oxo-spiro[6,7-dihydro-4H-pyrazolo[3,4-c]azepine-5,4′-tetrahydro-pyran]-3-yl)-2,2-dimethyl-propyl] 1-(dimethylcarbamoyl)-piperidine-4-carboxylate] is below 100 nM.
